Source: patent publication US20180125074A1, “PESTICIDAL COMPOSITIONS AND RELATED METHODS” (priority 2015, published 2018)

System: green peach aphids (Myzus persicae)
Experiment: Pesticidal activity against green peach aphid on cabbage plants after soil treatment
Type: in vivo
Details: for % Control at DAT of 21 days: Table 6; for % Control at DAT of 21 days / % Control at DAT of 28 days: GEROPON SDS 384 ppm
Method: Each tested compositions was prepared by mixing a predetermined amount of the CLOSER® SC insecticide (a sulfoxaflor concentrate having a sulfoxaflor concentration of 240 g/L) with a predetermined amount of sodium dioctylsulfosuccinate GEROPON® SDS anionic surfactant in an aqueous medium.
The compositions containing different amounts of sulfoxaflor and sodium dioctylsulfosuccinate GEROPON® SDS surfactant were prepared as shown in TABLE 4. For example, the “Sulfoxaflor at 100 ppm” composition contained about 0.043% weight of sulfoxaflor based on the total weight of the composition (i.e., 100 ppm of sulfoxaflor per one gram of final soil mixture). “Sulfoxaflor at 100 ppm+GEROPON®” composition contained about 0.043% weight of sulfoxaflor based on the total weight of the composition (i.e., 100 ppm of sulfoxaflor per one gram of final soil mixture), and about 0.225% weight of sodium dioctylsulfosuccinate GEROPON® SDS surfactant based on the total weight of the composition (i.e., 384 ppm per one gram of the final soil mixture; 1500 ppm per one gram of the total soil liquid).
The imidacloprid pesticide PROVADO® 1.6 from Bayer CropScience LP (North Carolina, USA) was used as a standard commercial pesticidal composition for aphid control. The imidacloprid pesticide PROVADO® 1.6 was tested at three different loadings: 100 ppm, 25 ppm, and 6.25 ppm per gram of final soil mixture. In this EXAMPLE 6, water was tested as a control composition. Furthermore, an aqueous solution of sodium dioctylsulfosuccinate GEROPON® SDS anionic surfactant was tested.
Cabbage plants (Brassica oleracea capitata L) of uniform size (two new leaf stage) infested with green peach aphids (Myzus persicae) (“GPA”) were used as the study models according to the following procedure:
Cabbage seeds were planted in 3-inch pots containing a peat-based METRO MIX 360® potting soil available from SUN GRO® Horticulture Canada, Ltd. The seeds were propagated in greenhouse zone G4, located in the R&D building of Dow AgroSciences (Indianapolis, Ind., USA), at 26° C. with a relative humidity of 53%. Natural light was supplemented with 1,000-watt metal halide overhead lamps with an average illumination of about 500 μE/m^2·s photosynthetic active radiation for 16 consecutive hours each day.
Each of the 1-ounce clear cups was filled with about 30 grams of the inoculated Midwest field soil having the components as shown in TABLE 5. […] The soil moisture of the Midwest field soil was about 15% as measured by Mettler LJ16 Moisture Analyzer (15 minutes and 100° C.).
The Midwest field soil in each selected 1-ounce cup was treated with about 9 mL of the selected composition using a 10 mL pipette. Deionized water was used as a control. The remainders of the 1-ounce cups were capped, and a small hole was poked into each lid to provide air flow. The remainders of the 1-ounce cups were stored in a controlled environment at 26° C. and covered with a black plastic bag to prevent any light from entering, until being used for the test.
Cabbage plants were gently removed from the 3-inch pots, and the plant roots were washed with water to remove any excess soil. Then, the cabbage plant was transplanted into the 1-ounce cup containing the treated Midwest field soil (one cabbage plant per one 1-ounce cup). The plants were watered as needed after being transplanted.
At the selected number of days after treating the Midwest field soil with the composition (i.e., numbers of days after the soil treatment, “DAT”), the cabbage plant in each 1-ounce cup was infested with GPA by placing a piece of squash leaf infested with about 25 aphids on each cabbage plant. The plants were then placed in a controlled environment at 26° C. for three days.
Five different evaluation times were performed: DAT of 0, 7, 14, 21, or 28 days. For example, for the DAT of zero (0) day, the cabbage plant was infested with GPA on the same day that it was transplanted into the treated Midwest field soil. […]

[1] = dose rate: sulfoxaflor 6.25 ppm, combination 6.25 + 384 ppm
[2] = Table 7, dose rate: sulfoxaflor 6.25 ppm, combination 6.25 + 384 ppm
[3] = Table 8, dose rate: sulfoxaflor 25 ppm, combination 25 + 384 ppm

Compound | % Control at DAT of 21 days [1] | % Control at DAT of 28 days [2] | % Control at DAT of 28 days [3] | number of live GPA aphids at DAT of 21 days (FIG. 6, cabbage in treated Midwest soil, counted three days after infestation, loading as named in the composition)
C[C@@H](c1ccc(C(F)(F)F)nc1)[S@](C)(=O)=NC#N (racemic) [Sulfoxaflor, [methyl(oxo) {1-[6-(trifluoromethyl)-3-pyridyl]ethyl}-λ^6-sulfanylidene]cyanamide, reference compound] | 0% | 0% | 36.39% | –
CCCCCCCCOC(=O)CC(C(=O)OCCCCCCCC)S(=O)(=O)O.[Na] (stereo not shown) [GEROPON ® SDS Surfactant, Sodium dioctyl sulfosuccinate] | 0% | 0% | 0% | 30 to 40
